Laboratory results from US20220249416A1, “SYNERGISTIC COMBINATIONS OF SYNTHETIC LYSINE ANALOGS, DERIVATIVES, MIMETICS, OR PRODRUGS AND PHARMACEUTICAL AGENTS FOR ENHANCED EFFICACY” (priority 2019, published 2022).

How the values were obtained:
[1] = system: HO-1, a clinical isolate of HSV-1 that is multiple drug resistant; test: Viral yields of multiple drug resistant HSV-1 isolate HO-1, plaque assay; type: cell-based, Herpes Simplex Virus Type 1; conditions: 2% tranexamic acid, MOI 5, 24 hpi
cold sores = test: Topical tranexamic acid on cold sore outbreaks in human subjects; type: in vivo
HSV-1 = test: Effect of 2% TA on HSV-1 DNA replication; type: cell-based, Herpes Simplex Virus Type 1; conditions: MOI 0.05 and 0.5
rabbit skin cells = conditions: 48 h
HSV Strain 17syn+ = test: Acyclovir escape mutants after 10 serial passages in rabbit skin cells; type: cell-based, Herpes Simplex Virus; conditions: 10 passages, 50 μM acyclovir alone or with 2% tranexamic acid; plated with 100 μM acyclovir vs. none

| Structure (SMILES) | effect on HO-1 viral yields [1] | time to resolution of cold sore outbreak symptoms (cold sores; 3% (w/v) topically several times a day, three human subjects) | cold sore outbreaks during one year (usual 3 to 5) (cold sores; 3 to 10% (w/v) applied to face daily for approximately one year, one subject) | time to healing of cold sore (cold sores; 5% (w/v) aqueous solution, about 0.25 mL, 5 times, one subject) | outcome of cold sore outbreak (cold sores; 10% (w/v) topically a single time, one subject) | replication of HSV DNA (HSV-1) | CC50 (rabbit skin cells) | Ratio of Acyclovir Resistant (ACVr) Virus (HSV Strain 17syn+) |
| --- | --- | --- | --- | --- | --- | --- | --- | --- |
| NC[C@H]1CC[C@H](C(=O)O)CC1 [tranexamic acid] | effective | ≤ 48 h | one | ≤ 36 h | the blister was gone and the outbreak had ceased | significantly reduces the replication of HSV DNA | 320 mM | – |
| Nc1nc2c(ncn2COCCO)c(=O)[nH]1 [Acyclovir, acyclovir] | – | – | – | – | – | – | – | 0.0044 |
